Data as given in ChEMBL document CHEMBL1201862, “PubChem BioAssay data set” (2004).
Calls of active or inactive are those of the source.

Columns and labels:
[1] = target: T1, Caspase-3 (Homo sapiens, UniProt P42574); assay: SAR Analysis of small molecule inhibitors of Sentrin-specific proteases (SENPs) using a Caspase-3 Selectivity assay. [Related pubchem assays (depositor defined):AID2540, AID2599, AID434973, AID489001]; type: functional
T1 sequence (P42574 whole entry): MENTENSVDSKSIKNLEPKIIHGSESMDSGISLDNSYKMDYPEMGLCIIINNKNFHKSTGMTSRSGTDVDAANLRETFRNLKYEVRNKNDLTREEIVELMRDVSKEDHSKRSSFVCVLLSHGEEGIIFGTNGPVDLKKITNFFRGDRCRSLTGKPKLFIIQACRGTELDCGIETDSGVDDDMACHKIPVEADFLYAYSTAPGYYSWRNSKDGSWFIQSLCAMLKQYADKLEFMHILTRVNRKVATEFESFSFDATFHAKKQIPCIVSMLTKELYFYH

[2] = target: T2, Sentrin-specific protease 6 (Homo sapiens, UniProt Q9GZR1); assay: SAR Analysis of small molecule inhibitors of Sentrin-specific protease 6 (SENP6) using a Luminescent assay. [Related pubchem assays (depositor defined):AID2582, AID2599]; type: functional
T2 sequence (Q9GZR1 whole entry): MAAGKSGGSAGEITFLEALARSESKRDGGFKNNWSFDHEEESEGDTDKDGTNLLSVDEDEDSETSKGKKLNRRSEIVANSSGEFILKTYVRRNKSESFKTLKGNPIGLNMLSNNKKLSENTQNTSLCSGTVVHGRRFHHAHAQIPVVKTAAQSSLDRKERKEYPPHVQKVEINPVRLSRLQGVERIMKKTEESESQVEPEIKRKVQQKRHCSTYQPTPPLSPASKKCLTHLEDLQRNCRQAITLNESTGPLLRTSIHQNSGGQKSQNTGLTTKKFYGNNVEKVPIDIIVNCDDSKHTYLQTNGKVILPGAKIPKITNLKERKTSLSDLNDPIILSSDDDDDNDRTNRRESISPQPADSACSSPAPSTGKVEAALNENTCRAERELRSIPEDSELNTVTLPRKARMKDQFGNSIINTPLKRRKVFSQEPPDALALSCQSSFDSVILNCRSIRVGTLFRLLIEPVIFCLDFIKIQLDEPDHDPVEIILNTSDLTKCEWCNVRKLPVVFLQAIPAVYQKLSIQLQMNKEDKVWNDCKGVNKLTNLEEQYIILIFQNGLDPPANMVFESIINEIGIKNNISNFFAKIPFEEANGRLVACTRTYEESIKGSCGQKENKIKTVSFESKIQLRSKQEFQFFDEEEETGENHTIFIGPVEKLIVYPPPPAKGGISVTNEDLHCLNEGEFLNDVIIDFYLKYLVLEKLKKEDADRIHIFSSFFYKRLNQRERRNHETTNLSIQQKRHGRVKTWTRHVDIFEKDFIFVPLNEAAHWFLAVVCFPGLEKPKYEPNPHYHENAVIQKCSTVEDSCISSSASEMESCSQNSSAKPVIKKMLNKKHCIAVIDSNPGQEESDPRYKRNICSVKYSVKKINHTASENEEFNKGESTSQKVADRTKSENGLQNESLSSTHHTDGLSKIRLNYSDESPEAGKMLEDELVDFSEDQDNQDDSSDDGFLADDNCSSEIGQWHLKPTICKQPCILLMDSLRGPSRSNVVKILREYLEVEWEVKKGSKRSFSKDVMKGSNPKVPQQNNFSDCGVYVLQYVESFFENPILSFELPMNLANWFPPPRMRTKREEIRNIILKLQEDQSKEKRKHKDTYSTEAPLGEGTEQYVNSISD

[3] = target: T3, Sentrin-specific protease 8 (Homo sapiens, UniProt Q96LD8); assay: SENP8 protease inhibitors, SAR follow-up, biochemical, luminescence (AID 504501); type: functional
T3 sequence (Q96LD8 whole entry): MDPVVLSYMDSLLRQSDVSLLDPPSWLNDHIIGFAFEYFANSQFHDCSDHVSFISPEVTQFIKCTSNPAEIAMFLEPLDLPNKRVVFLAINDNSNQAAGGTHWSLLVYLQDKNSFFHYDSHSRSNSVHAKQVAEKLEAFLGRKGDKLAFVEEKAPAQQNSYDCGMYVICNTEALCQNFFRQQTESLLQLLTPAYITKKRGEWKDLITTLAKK

[4] = target: T4, Sentrin-specific protease 7 (Homo sapiens, UniProt Q9BQF6); assay: SENP7 protease inhibitors, SAR follow-up, biochemical, luminescence (AID 504497); type: functional
T4 sequence (Q9BQF6 whole entry): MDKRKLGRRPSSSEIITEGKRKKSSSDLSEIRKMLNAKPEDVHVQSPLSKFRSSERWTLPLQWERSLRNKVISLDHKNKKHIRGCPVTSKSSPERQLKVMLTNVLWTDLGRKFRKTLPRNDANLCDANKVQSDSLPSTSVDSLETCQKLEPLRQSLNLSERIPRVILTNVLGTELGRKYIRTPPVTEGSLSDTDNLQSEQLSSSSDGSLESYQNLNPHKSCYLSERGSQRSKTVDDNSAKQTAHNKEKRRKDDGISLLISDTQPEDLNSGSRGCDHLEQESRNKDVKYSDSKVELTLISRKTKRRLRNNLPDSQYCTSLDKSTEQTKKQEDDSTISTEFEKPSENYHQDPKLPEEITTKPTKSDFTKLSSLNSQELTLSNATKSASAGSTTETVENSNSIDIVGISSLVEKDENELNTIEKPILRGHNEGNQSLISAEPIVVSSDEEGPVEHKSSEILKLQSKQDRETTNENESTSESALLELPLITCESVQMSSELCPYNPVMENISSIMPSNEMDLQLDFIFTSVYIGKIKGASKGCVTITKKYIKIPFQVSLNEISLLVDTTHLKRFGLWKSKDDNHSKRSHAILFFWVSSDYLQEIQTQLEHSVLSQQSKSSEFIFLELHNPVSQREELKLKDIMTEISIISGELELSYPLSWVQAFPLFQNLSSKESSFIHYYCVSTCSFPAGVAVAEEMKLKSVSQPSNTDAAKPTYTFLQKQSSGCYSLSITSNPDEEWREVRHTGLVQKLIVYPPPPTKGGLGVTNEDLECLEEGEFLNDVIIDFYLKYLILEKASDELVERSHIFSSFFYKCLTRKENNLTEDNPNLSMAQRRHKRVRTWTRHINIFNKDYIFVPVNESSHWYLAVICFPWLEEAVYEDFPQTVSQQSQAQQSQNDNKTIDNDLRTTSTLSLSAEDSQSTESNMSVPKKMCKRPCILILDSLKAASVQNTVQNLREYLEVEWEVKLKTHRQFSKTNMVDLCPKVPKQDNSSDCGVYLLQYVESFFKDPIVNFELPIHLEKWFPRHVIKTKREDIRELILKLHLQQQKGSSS

[5] = CEM21 lymphoblast cell cytotoxicity, dose response, cytotoxicity control for viral fusion inhibitor project, CellTiter-Glo luminescence, cherry-picked (AID 652042); type: functional, cell-based;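 note: potency for signal decrease meaning cytotoxicity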
[6] = test system: BJ; assay: cytotoxicity toward BJ-TERT-LT-ST fibroblasts, dose response, cell-based, RAS-independent, luminescence (AID 1935); type: functional; conditions: Homo sapiens;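 note: BJ fibroblasts immortalized with TERT plus LT and ST oncogenes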
[7] = cytotoxicity in HEK-293T cells, dose response, cytotoxicity control for TCR NF-kB inhibitor project, luminescence, T-cell screen hits (AID 489026); type: functional, cell-based;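 note: cells exposed to compound about 14 hours before the viability readout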
[8] = inhibitors of HIV Env-driven cell fusion, dose response, cherry-pick (AID 652057); type: functional, cell-based
[9] = target: Beta Lactamase (Pseudomonas aeruginosa, UniProt Q932Y6); assay: beta-lactamase reporter inhibitor potency, dose response, artefact control for TLR9-MyD88 binding inhibitor project, BLA reporter cells, FRET fluorescence (AID 588341); type: cell-based;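 note: cell based assay in CHO-K1 cells stably expressing beta-lactamase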
[10] = cells; type: functional
[11] = off-target signal loss in HeLa-CEM21 co-culture – HeLa F-luc CTL cells, cherry-picked, counter-screen for HIV-1 Env fusion inhibitor project, dose response (AID 652040); type: functional, cell-based;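 note: potency for signal decrease marking cytotoxic or nonspecific inhibition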
[12] = test system: BJ; assay: cells; type: functional, cell-based; conditions: Homo sapiens
[13] = Vero E6 cell cytotoxicity, dose response, cytotoxicity control for non-replicating M. tuberculosis project, secondary assay (AID 492998); type: functional, VeroE6; conditions: Vero C1008
[14] = test system: CHO; assay: cytotoxicity in TLR9-MyD88 CHO cells, dose response, cytotoxicity control for TLR9-MyD88 binding inhibitor project, cell-based, luminescence (AID 588339); type: functional, hamster; conditions: Cricetulus griseus;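 note: CHO cells stably coexpressing TLR9 and MyD88 fusions from primary screen; compound exposure lasted 48 hours before viability readout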
[15] = target: T5, Bcl-2-related protein A1 (Mus musculus, UniProt Q07440); type: functional;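 note: confirmatory dose–response counterscreen on Bfl-1, used to check hits from a UBC13 polyubiquitin inhibitor campaign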
T5 sequence (Q07440 whole entry): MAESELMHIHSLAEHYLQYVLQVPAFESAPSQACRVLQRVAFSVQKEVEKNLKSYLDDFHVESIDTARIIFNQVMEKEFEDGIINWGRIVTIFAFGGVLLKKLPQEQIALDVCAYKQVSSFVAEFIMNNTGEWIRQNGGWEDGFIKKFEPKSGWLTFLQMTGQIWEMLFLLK

[16] = inhibitors of SNCA 5'UTR-driven reporter translation, confirmation, H4 neuroglioma cells, luminescence (AID 1988); type: functional, cell-based
[17] = target: T6, Mitochondrial peptide methionine sulfoxide reductase (Bos taurus, UniProt P54149); type: functional;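 note: absorbance read-out, biochemical high-throughput dose-response screen for MsrA inhibitors, confirmatory; recombinant bovine MsrA coupled to E. coli TrxB with NADPH and selenocystamine; potency is for inhibitors of MsrA activity on DMSO substrate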
T6 sequence (P54149 whole entry): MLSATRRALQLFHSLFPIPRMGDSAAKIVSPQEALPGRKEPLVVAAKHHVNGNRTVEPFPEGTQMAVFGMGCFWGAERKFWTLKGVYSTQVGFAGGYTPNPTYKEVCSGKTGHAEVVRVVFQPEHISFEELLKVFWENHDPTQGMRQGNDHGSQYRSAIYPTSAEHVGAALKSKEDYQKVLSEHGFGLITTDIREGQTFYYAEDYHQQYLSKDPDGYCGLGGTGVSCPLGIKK

[18] = Luminescence Cell-Based Dose Response HTS to Identify Inhibitors of 5'UTR Stem-Loop Driven Prion Protein mRNA Translation in H4 Neuroglioblastoma Cells. [Related pubchem assays: 1827 (Project Summary), 1813 (Primary HTS)]; type: functional
[19] = HepG2 cell cytotoxicity, dose response, cytotoxicity control for non-replicating M. tuberculosis project (AID 489018); type: functional; conditions: Mycobacterium tuberculosis
[20] = inhibitors of firefly luciferase expression or activity, dose response, H4 neuroglioma cells, luminescence (AID 1990); type: functional, cell-based
[21] = THP-1 cell cytotoxicity, dose response, cytotoxicity control for non-replicating M. tuberculosis project (AID 489025); type: functional
[22] = target: T7, Ubiquitin-conjugating enzyme E2 N (Homo sapiens, UniProt P61088); type: functional
T7 sequence (P61088 whole entry): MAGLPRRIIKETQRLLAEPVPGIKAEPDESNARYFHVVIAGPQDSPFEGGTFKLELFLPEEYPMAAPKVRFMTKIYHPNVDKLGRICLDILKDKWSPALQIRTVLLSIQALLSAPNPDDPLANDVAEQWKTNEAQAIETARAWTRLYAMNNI

[23] = test system: INS1; assay: beta cell apoptosis inhibitors, cytokine rescue, dose response, luminescence, retest (AID 449756); type: functional, cell-based; conditions: Rattus norvegicus;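 note: cell death triggered by IL-1 beta plus TNF-alpha plus IFN-gamma mixture; protective hits raise ATP signal compared with cytokine alone wells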
[24] = target: T7, Ubiquitin-conjugating enzyme E2 N; type: functional; remark: listed apart in the source
[25] = test system: BJ; assay: cytotoxicity toward Ras-transformed BJeLR fibroblasts, dose response, cell-based, alamar blue fluorescence, cherrypicked samples (AID 2631); type: functional; conditions: Homo sapiens;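 note: confirmatory dose-response assay in RAS-dependent BJ fibroblasts engineered with TERT, LT and ST, with cytotoxicity read by fluorescence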
[26] = cytotoxicity toward DRD oncogenic fibroblasts, dose response, cell-based, non-viral oncogenic, luminescence (AID 1934); type: functional; conditions: Homo sapiens
[27] = inhibitors of clade B AD8 Env fusion, dose response, cell-based, cherry-pick (AID 652062); type: functional;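 note: luciferase signal from cell-cell fusion driven by HIV-1 clade B AD8 Env; potency is for inhibitors of fusion seen as a drop in luminescence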
[28] = target: Aryl hydrocarbon receptor (Homo sapiens, UniProt P35869); assay: Luminescence-based cell-based high throughput dose response assay for activators of the Aryl Hydrocarbon Receptor (AHR). [Related pubchem assays: 2796 (Primary screen (AHR activators in singlicate)), 2845 (Confirmation screen (AHR activators in triplicate)), 434939 (Counterscreen (PXR activators in triplicate)), 2804 (Summary (AHR activators))]; type: ADME
[29] = test system: BJ; assay: cytotoxicity toward BJ-TERT fibroblasts, dose response, cell-based, RAS-independent, luminescence (AID 1933); type: functional; conditions: Homo sapiens
[30] = ZM109 Env clade C HIV-1 fusion inhibitors, dose response, HeLa effector, CEM target cells, luciferase, cherry-pick (AID 652058); type: functional, cell-based

Sequence of Aryl hydrocarbon receptor (P35869 whole entry): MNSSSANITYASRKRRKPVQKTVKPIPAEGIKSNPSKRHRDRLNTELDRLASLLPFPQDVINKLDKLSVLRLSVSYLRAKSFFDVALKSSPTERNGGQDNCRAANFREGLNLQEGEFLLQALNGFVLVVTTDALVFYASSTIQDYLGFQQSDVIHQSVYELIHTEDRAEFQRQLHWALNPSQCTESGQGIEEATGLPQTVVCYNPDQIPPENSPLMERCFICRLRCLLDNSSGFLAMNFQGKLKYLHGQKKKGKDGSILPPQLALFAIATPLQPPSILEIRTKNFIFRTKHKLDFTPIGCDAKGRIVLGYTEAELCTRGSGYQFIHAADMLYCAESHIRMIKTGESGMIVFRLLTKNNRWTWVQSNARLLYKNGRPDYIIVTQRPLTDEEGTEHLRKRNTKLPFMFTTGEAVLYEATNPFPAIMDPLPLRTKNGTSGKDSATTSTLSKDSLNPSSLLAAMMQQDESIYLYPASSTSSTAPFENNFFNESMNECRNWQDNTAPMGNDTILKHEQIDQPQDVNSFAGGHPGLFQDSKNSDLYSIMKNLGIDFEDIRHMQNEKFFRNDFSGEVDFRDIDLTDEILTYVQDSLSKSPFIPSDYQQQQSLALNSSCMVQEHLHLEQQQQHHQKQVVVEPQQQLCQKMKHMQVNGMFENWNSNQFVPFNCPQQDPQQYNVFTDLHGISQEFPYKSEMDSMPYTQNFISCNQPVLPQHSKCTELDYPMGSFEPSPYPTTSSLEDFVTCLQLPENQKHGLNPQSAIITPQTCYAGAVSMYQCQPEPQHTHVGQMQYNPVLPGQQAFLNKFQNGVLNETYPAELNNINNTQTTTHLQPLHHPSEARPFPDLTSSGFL
Sequence of Beta Lactamase (Q932Y6 whole entry): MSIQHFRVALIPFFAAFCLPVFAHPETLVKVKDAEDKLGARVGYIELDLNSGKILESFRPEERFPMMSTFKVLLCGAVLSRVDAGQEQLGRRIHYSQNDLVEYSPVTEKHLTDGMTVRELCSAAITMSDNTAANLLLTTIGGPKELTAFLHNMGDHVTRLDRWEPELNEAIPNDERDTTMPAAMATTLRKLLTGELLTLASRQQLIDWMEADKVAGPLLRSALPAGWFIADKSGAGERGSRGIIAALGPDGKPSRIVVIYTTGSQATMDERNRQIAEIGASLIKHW

CCC(=O)c1ccc(OCC(=O)N(c2ccccc2)c2nc(-c3ccccc3)ns2)cc1
IC50 [1]: > 99 µM (inactive) | IC50 [2]: 65.1 µM (active) | IC50 [3]: 96.7 µM (active) | IC50 [4]: 32 µM (active)

COc1ccc2nc(C)cc(N/N=C/c3ccc(F)cc3)c2c1
AC50 [5]: 2.65 µM (active) | EC50 [6]: 2.66 µM (inconclusive) | IC50 [7]: > 80 µM (inactive) | AC50 [8]: 8.26 µM (active) | IC50 [9]: 2.13 µM (active) | IC50 [10]: 3.12 µM (active) | AC50 [11]: 6.09 µM (active) | EC50 [12]: 5.09 µM (inconclusive) | CC50 [13]: 0.57 µM (active) | IC50 [14]: 6.2 µM (active) | IC50 [15]: 17 µM (active) | EC50 [16]: 9.29 µM (active) | IC50 [17]: 12.8 µM (inactive) | EC50 [18]: > 120 µM (not active) | CC50 [19]: 15.2 µM (active) | EC50 [20]: 8.44 µM (active) | CC50 [21]: 1.66 µM (active) | IC50 [22]: 11.8 µM (active) | AC50 [23]: 6.46 µM (active) | IC50 [24]: 10.1 µM (active) | EC50 [25]: 0.317 µM (active) | EC50 [26]: 4.92 µM (active) | AC50 [27]: 14.7 µM (active) | EC50 [28]: > 0.377 µM (active) | EC50 [29]: 1.24 µM (inconclusive) | AC50 [30]: 8.14 µM (active)
